Data from patent publication US20170231890A1, “Methods And Compositions For Stimulating Collagen Synthesis In Skin Cells” (ELC Management LLC, priority 2016, published 2017).

Tested on: normal human dermal fibroblasts (NHDF) from a donor
Assay: collagen induction assay (Pro-collagen Type I EIA) in aged fibroblasts
Format: cell-based
Details: for % Increase in Collagen Induction: 5 days, vs DMEM control
Protocol: Tripeptide-32 was tested at various concentrations for its ability to stimulate collagen production in normal human dermal fibroblasts (“NHDF”) from a donor in a collagen induction assay. Tripeptide-32 was tested at 1× (0.2%) 0.5× (0.1%) and 0.2× (0.04%) concentration diluted in DMEM (“Dulbecco's Modified Eagle Medium”) supplemented with 10% Hyclone® bovine calf serum and 1% Cellgro® penicillin-streptomycin solution (“DMEM”). All percentages are by weight of the total composition.
Cell Growth and Maintenance. Aged NHDF were obtained from ZenBio. Fibroblasts were cultured in DMEM 1× (Life Tech) supplemented with 10% bovine calf serum (“BCS”) (Hyclone) and 1% PenStrep (“PS”) solution (Cellgro). Cells were regularly maintained; subcultured as needed.
Plating Cells. Normal human dermal fibroblasts (NHDF, aged) were plated on a 96-well plate in supplemented DMEM (as indicated above). All rows, except for Row A, were seeded with cells (Row A was left blank to allow for background subtraction). Plate was allowed to incubate at standard conditions (37° C., 5% CO2, 95% humidity) overnight.
Preparation & Treatment of Cells. The following treatments were created in full media (1% P/S and 10% BCS supplemented) DMEM: (1) Laminaria digitata extract (0.5%); Acetyl hexapeptide-8 solution (a mixture of 0.05% Acetyl hexapeptide-8, 99.35% water and the remainder preservatives) (10%); and whey protein (0.1%, solid) with the remainder DMEM (the “Mixture”); (2) Mixture+Tripeptide-32: Laminaria digitata extract (0.5%), Acetyl hexpeptide-8 solution (10%), whey protein (0.1%) and Tripeptide-32 (0.2%) in DMEM at 1× (0.2%), 0.5× (0.1%), and 0.2× (0.04%) concentration; (3) Tripeptide-32 alone at 1× (0.2%), 0.5× (0.1%) and 0.2× (0.04%) concentration. Each treatment (200 ul/well) was added to the corresponding well of the 96-well plate. Treated plate was allowed to incubate at standard conditions (37° C., 5% CO2, 95% humidity) for 5 days.
Assessment of Collagen Production. Collagen production was assessed using the Pro-collagen Type I collagen EIA Kit (Takara) as per manufacturer's protocol, exactly as described. Plate was read using the Gemini M2E plate reader and results were compared.
The combination of Tripeptide-32 and a mixture of Acetyl hexapeptide-8, Laminaria digitata extract and whey protein were tested for collagen stimulation in NHDF from a donor. Tripeptide-32 at a concentration of 0.2% was combined with a mixture of Acetyl hexapeptide-8 solution (0.05% Acetyl hexapeptide-8, 99.35% water, remainder preservatives) (10%); 0.5% Laminaria digitata extract solution, and 0.1% whey protein in Supplemented DMEM.
The tests were performed according to the method in Example 1.

Ser-Thr-Pro-NH2 [Tripeptide-32]
collagen synthesis (result in words) (0.2× (0.04%)): decreased collagen synthesis
% Increase in Collagen Induction (0.2× concentration (Tripeptide-32 0.04%)): −15.39%
collagen synthesis (result in words) (0.5× (0.1%) and 1× (0.2%) concentrations): nearly insignificant increase in collagen synthesis
% Increase in Collagen Induction (0.5× concentration (Tripeptide-32 0.1%)): +1.17%
% Increase in Collagen Induction (1.0× concentration (Tripeptide-32 0.2%)): +3.27%
